# Columns and labels:
# Assay type in all cases: functional
# Heliothis virescens [1] = assay: Antifeedant activity in Heliothis virescens at 0.25 ug/cm'2 relative to dithane
# Heliothis virescens [2] = assay: Antifeedant activity in Heliothis virescens at 247.5 ug/cm'2 after 2 days relative to control
# Heliothis virescens [3] = assay: Antifeedant activity in Heliothis virescens at 247.5 ug/cm'2 after 4 days relative to control
# Heliothis virescens [4] = assay: Antifeedant activity in Heliothis virescens at 247.5 ug/cm'2 after 6 days relative to control
# Heliothis virescens [5] = assay: Antifeedant activity in Heliothis virescens at 76.7 ug/cm'2 after 2 days relative to control
# Heliothis virescens [6] = assay: Antifeedant activity in Heliothis virescens at 76.7 ug/cm'2 after 4 days relative to control
# Heliothis virescens [7] = assay: Antifeedant activity in Heliothis virescens at 76.7 ug/cm'2 after 6 days relative to control
# Heliothis virescens [8] = assay: Antifeedant activity in Heliothis virescens at 24.8 ug/cm'2 after 2 days relative to control
# Heliothis virescens [9] = assay: Antifeedant activity in Heliothis virescens at 24.8 ug/cm'2 after 4 days relative to control
# Heliothis virescens [10] = assay: Antifeedant activity in Heliothis virescens at 24.8 ug/cm'2 after 6 days relative to control
# Heliothis virescens [11] = assay: Antifeedant activity in Heliothis virescens at 7.7 ug/cm'2 after 2 days relative to control
# Heliothis virescens [12] = assay: Antifeedant activity in Heliothis virescens at 7.7 ug/cm'2 after 4 days relative to control
# Heliothis virescens [13] = assay: Antifeedant activity in Heliothis virescens at 7.7 ug/cm'2 after 6 days relative to control
structure (smiles),measurement,setting,value
Cc1c(O)c(C=O)c(O)c(C(=O)CCc2ccccc2)c1O,Activity,Heliothis virescens [1],90%
same,Activity,Heliothis virescens [2],90%
same,Activity,Heliothis virescens [3],60%
same,Activity,Heliothis virescens [4],60%
same,Activity,Heliothis virescens [5],90%
same,Activity,Heliothis virescens [6],60%
same,Activity,Heliothis virescens [7],60%
same,Activity,Heliothis virescens [8],90%
same,Activity,Heliothis virescens [9],60%
same,Activity,Heliothis virescens [10],30%
same,Activity,Heliothis virescens [11],60%
same,Activity,Heliothis virescens [12],60%
same,Activity,Heliothis virescens [13],30%
